{"source": "patent US10456377B2", "about": "“Anesthetic comprising tetracaine and a vasoconstrictor for administration to a subject” (St. Renatus, LLC, priority 2009, dated 2019)", "tested_on": "maxillary dentition", "experiment": "Intranasal tetracaine HCl solution, anesthesia of the maxillary dentition by electric pulp testing (EPT)", "type": "in vivo, human", "settings": "nasal spray, tetracaine doses between 4 and 16 mg, 80 subjects", "procedure": "The purpose of this study was to identify an effective and safe dosage of an intranasally administered tetracaine hydrochloride solution for obtaining anesthesia of the maxillary dentition. Healthy human volunteers were administered a dose of tetracaine HCl delivered as a nasal spray using a BD Accuspray™ device. The administration of the local anesthetic varied by total dose, concentration, and volume, and it included single doses in a single nostril, split doses in the same nostril, and divided doses in both nostrils. Different techniques regarding direction of spray were also investigated.\nThe efficacy of tetracaine hydrochloride in 80 subjects was measured by monitoring pain levels via electric pulp testing (EPT). EPT testing was accomplished by passing a current through the tooth to be tested wherein the lowest level of current is a “0” and the highest level of current is an “80.” Subjects are exposed to an increasing amount of current (starting at 0 and ramping up to 80). If any pain was felt by the subject, the test was stopped and the EPT reading was recorded.\nSubjects received tetracaine doses between 4 and 16 mg.", "note": "Counter-ions that a name gives are not always drawn.", "data": [{"smiles": "CCCCNc1ccc(C(=O)OCCN(C)C)cc1", "note": "[tetracaine HCl, 2-(dimethylamino)ethyl 4-(butylamino)benzoate]", "values": [{"measurement": "maxillary arch anesthesia, as indicated by an EPT score of 80", "value": "did not result in maxillary arch anesthesia"}]}]}
